Results on 86 molecules are retold here after a melting point compilation (Tetko et al.; mined from patent text by program, amines drawn as free bases though some values may be those of a salt).

`CCOC(=O)CCCCc1cn(-c2cccnc2)c2ccccc12`: the melting point is 56 to 58 °C.
Molecule `COc1cccc(NC(=O)N2CCc3cc(S(=O)(=O)N4CCN(c5cccc(Cl)c5)CC4)ccc32)c1` displayed a melting point of 199 to 200 °C.
For `C#CCON=C(C(=O)OC)c1nsc(NC(=O)OC(C)(C)C)n1`, the melting point was in the range of 72 to 75 °C.
Molecule `CC1(C(=O)Nc2ccc(-n3nc(C(F)(F)F)cc3C(F)(F)F)cc2)CC1` registered a melting point of 109 to 110 °C.
In the case of `CSc1cccc(-n2ncc(-c3ccc(S(C)(=O)=O)cc3)c(-c3ccc(F)cc3)c2=O)c1`, the melting point is 196 °C.
For `COc1cccc(CN2CCCCc3cc(CN(O)C(N)=O)ccc32)c1`, the melting point lay within 38 to 42 °C.
Turning to `Nc1c(SC(F)(F)F)nc(Cl)n1-c1c(Cl)cc(C(F)(F)F)cc1Cl`, the melting point was 172 °C.
Consider `O=[N+]([O-])c1ccc(-c2nc(-c3ccc([N+](=O)[O-])cc3)c(-c3ccc([N+](=O)[O-])cc3)[nH]2)cc1`, for which the melting point lay in the range of 320 to 322 °C.
`COc1ccc(CCc2ccccc2C2(OC)C=CC(C(N)=O)=C(O)C2)cc1OC` (stereo unspecified) yielded a melting point of 146 to 148 °C.
The figure for `O=C1N(Cc2cccc(Cl)n2)c2ccccc2C12COc1cc3c(cc12)OCCO3` (stereo unspecified) is 181 to 182 °C.
Next, `Oc1ccccc1C=C1c2ccccc2CCc2ccccc21`: 56.9 °C; `CC(C)(C)OC(=O)[C@H](COC(=O)N(N)c1ccc(CC(=O)O)cc1)C(=O)OC(c1ccccc1)c1ccccc1`: 165 to 166 °C; `O=C(NCCN1CCCCC1)c1nc(NCC(c2ccccc2)c2ccccc2)c2nc[nH]c2n1`: 222 °C.
`CC(CNC(c1ccccc1)c1ccccc1)NC(c1ccccc1)c1ccccc1` (stereo unspecified): the melting point lay within 72 to 75 °C.
The figure for `COC(=O)Cc1ccccc1OCc1cc(OCc2nc(-c3ccccc3)sc2C)no1` is 108 to 109 °C; for `COc1ccc(-c2cccc(NC(N)=O)c2)cc1OC1CCCC1` it is 174 to 175 °C.
The figure for `COc1nnc(Cl)c2c1CCCC2` is 117 to 119 °C; for `Sc1nnc(-c2cnccn2)s1` it is 224 to 228 °C.
The figure for `CCC(=O)N1c2cscc2C(=O)N(C)c2ccccc21` is 202 to 203 °C.
In the case of `CCCCCS(=O)(=O)NC(=O)CCc1ccc(OCCOC)cc1Oc1ncc(C(F)(F)F)cc1Cl`, the melting point lay in the range of 140 to 142 °C.
The figure for `OC(CNC1CC1)COc1ccc(-c2nccs2)cc1` (stereo unspecified) is 100 to 102 °C; for `CCn1c(Oc2cccc(NS(C)(=O)=O)c2)nnc1[C@@H](C)NS(=O)(=O)c1ccc(Cl)c(Cl)c1` it is 117 to 118 °C; for `CCOC(=O)C1=C(C)NC(C=NO)=C(C(=O)OCC)C1c1ccccc1Cl` (stereo unspecified) it is 136 to 137 °C.
The figure for `COCc1ccc(C(=O)O[C@H](CC(C)C)C(=O)O)o1` is 73 to 74 °C; for `COc1ccc(OC)c2c(C#C[Si](C)(C)C)c3ccccc3nc12` it is 110 to 111 °C.
The figure for `CCc1ccc([N+]([O-])=Cc2ccc(C)cc2)cc1` is 97 to 99 °C; for `COc1ccc(OC)c2c1C[C@](O)(CC#N)CC21SCCS1` it is 173 to 174 °C.
In turn, `Cc1nc(N)c2nc(C)n(Cc3cc(-c4ccc(F)cc4)no3)c2c1C` had a melting point of 278 to 279 °C.
`CN(C)CCCc1ccc(C(=O)/C=C/c2ccc(Cl)cc2)cc1` returned a melting point of 83 to 86 °C.
`N#Cc1cc(-n2cnnc2)cc(C(F)(F)F)c1N` registered a melting point of 283 °C.
As for `Cc1scc(-c2ccccc2)c1N=C1NCCN1`, the melting point was 140 to 141 °C.
Next, `Cc1ccc(C(=O)NCCN(C)C)cc1-n1c(C)cc(OCc2ccccc2CNC(=O)Nc2cc(C(C)(C)C)nn2-c2ccc(O)c(Cl)c2)c(Cl)c1=O`: 181 to 182 °C; `O=C(Nc1ccc(-c2ccccc2)cc1C(=O)O)OCc1cc2cc(-c3ccccc3)ccc2o1`: 226 °C.
`Cc1nn(C)c(C2=NC(C)CN2)c1[N+](=O)[O-]` (stereo unspecified) showed a melting point of 98 to 101 °C.
As for `COc1cccc(C2Nn3cc(-c4cc(-c5ccc(Cl)cc5Cl)no4)nc3S2)c1` (stereo unspecified), the melting point was in the range of 195 to 198 °C.
Next, `CC(C)(C)OC(=O)C1CCN(C(=O)C2CN(c3ccc(-c4noc(=O)[nH]4)cc3)C(=O)O2)CC1` (stereo unspecified): 171 to 175 °C.
As for `Fc1ccccc1NC(=S)Nc1ncccc1OCc1c(F)cccc1Cl`, the melting point lay in the range of 145 to 147 °C.
As to `COC(=O)C1=C(C)NN=C(c2cccs2)C1c1cccc(Cl)c1` (stereo unspecified), the melting point was determined as 191 °C.
In the case of `COc1cc2[nH]c(=O)nc(C)c2c(C)c1OC`, the melting point was in the range of 78 to 81 °C.
Consider `COC(=O)c1cc(Cl)c(Oc2ccc(OC)c(Cc3ccc(F)cc3)c2)c(Cl)c1`, for which the melting point was 108 to 110 °C.
`CC(C)(C)C(=O)C=Cc1cccnc1` showed a melting point of 68 to 70 °C.
The molecule `C=CCCN(CCC=C)Cc1noc(-c2ncn3c2[C@@H]2CCN2C(=O)c2c(Cl)cccc2-3)n1` registered a melting point of 115 to 120 °C.
Next, `COc1ccc(/C=C/c2cc(/C=C/c3ccc4cc[nH]c4c3)[nH]n2)c(OC)c1`: 121 to 133 °C; `COC(=O)/C(O)=C1\CCc2cc(OC)ccc2C1=O`: 77.3 to 77.8 °C; `CCC(CC)n1nnc2c(Nc3ccc(C(C)=O)cc3Br)nc(C)nc21`: 153 to 154 °C.
The molecule `O=C1c2nccc(Br)c2C(=O)c2c(-c3ccccc3NC(=O)C(F)(F)F)ccnc21` displayed a melting point of 145 °C.
`Oc1ccc(Oc2ccc(Br)cc2F)cc1`: the melting point is 83.5 to 85 °C.
The figure for `O=C(O)C1CCCCC1C(=O)CCSSCCC(=O)C1CCCCC1C(=O)O` (stereo unspecified) is 167 to 170 °C; for `N#Cc1c(N2CCCCC2)cc(-c2cccs2)c2c1-c1ccccc1C2=O` it is 172 to 174 °C; for `Cn1ccc2cc(-c3ccc(S(=O)(=O)n4ccc(/C=C/C(=O)NO)c4)cc3)ccc21` it is 177 to 179 °C.
As to `Cn1c(COCCn2cnc3c(N)nc4ccccc4c32)cc2ccccc21`, the melting point fell in the range of 243 to 245 °C.
Molecule `Cc1ccc(-c2ccc(S(C)(=O)=O)cc2)n1-c1ccc(-c2nccs2)cc1` had a melting point of 190 to 191 °C.
As for `N#Cc1nn(-c2c(Cl)cc(C(F)(F)F)cc2Cl)cc1C#CBr`, the melting point was 166 to 168 °C.
The figure for `CC[C@H](Cc1sccc1Cl)Nc1ccnc(O)c1[N+](=O)[O-]` is 150 to 152 °C.
Next, `O=c1cnn(-c2cc(Cl)c(Cc3ccc(Cc4ccccc4)cc3)c(Cl)c2)c(=O)[nH]1`: 164 to 165 °C; `CCN(C(=O)c1cc(N(C)C)ccc1[Si](C)(C)C)C(OC)C(C)(C)C` (stereo unspecified): 96 to 98 °C; `COc1ccc(CCNCC(O)c2ccccc2)cc1OC` (stereo unspecified): 92 to 93 °C.
The molecule `COC(=O)C=C(Nc1ccccc1C#N)C(=O)OC` displayed a melting point of 116 to 118 °C.
In turn, `Cc1c(C)c(C(CO)c2ccc(C(C)C)cc2)c(O)c(C)c1Br` (stereo unspecified) registered a melting point of 96 to 97 °C.
Take `CC(C=Cc1ccc(C(=O)O)cc1)c1ccccc1` (stereo unspecified): the melting point was 127 to 130 °C.
The figure for `Clc1ccc(Oc2c(-c3ccco3)sc3cnccc23)cc1` is 75 to 77 °C; for `COC(=O)c1c(F)cc(OCCNC(=O)OCc2ccccc2)cc1F` it is 95 to 97 °C; for `Cc1nc(-n2ccc(-c3ccc(Cl)cc3)cc2=O)sc1C(=O)NCc1ccccc1` it is 265 to 267 °C.
Take `CCN1CCC(=O)N(c2ccccc2C(C)C)C1=S`: the melting point lay within 118 to 122 °C.
On to `OC1CCN(c2cc3nc(S)[nH]c3cc2F)CC1`, for which the melting point is 268 to 269 °C.
`CCCCCCNC(=O)Nc1ccccc1C(=O)NCC1CCN(C(c2ccccc2)c2ccccc2)CC1` had a melting point of 168 to 169 °C.
As for `O=C(NCc1cccnc1)C1Oc2ccc(Cl)cc2Cc2cc(Cl)ccc2O1`, the melting point was in the range of 225 to 226 °C.
Consider `CCc1cc(C(=O)c2ccccc2Cl)c(NC)s1`, for which the melting point was in the range of 100 to 102 °C.
In turn, `CNC(=O)/C(=N/OC)c1ccccc1COc1cccc(OC)n1` yielded a melting point of 81 to 82 °C.
Consider `CC#CCOc1ccc(S(=O)(=O)NC(C(=O)NO)c2ccc(OCCN3CCOCC3)cc2)cc1` (stereo unspecified), for which the melting point fell in the range of 80 to 86 °C.
For `O=C(N[C@H](Cc1cccc(Oc2ccccc2)c1)[C@@H](O)c1ccc(F)cc1)c1ccc(F)c2ccccc12` (racemic), the melting point was 120 to 121 °C.
Regarding `Cc1cc(C)c(C(=O)C(F)(F)F)[nH]1`, the melting point worked out at 80 °C.
`O=P(O)(O)Cc1ccc(-c2ccccc2)cc1` returned a melting point of 246 to 248 °C.
As to `NC1C(=O)N(CC2C3CC4CC(C3)CC2C4)c2ccccc2N(c2ccccc2)C1=O` (stereo unspecified), the melting point fell in the range of 209 to 210 °C.
Next, `CCn1c(NC=O)nc(N2CCc3ccccc3CC2)c(C#N)c1=O`: > 200 °C; `CC1(C(=O)N2CCOCC2)COC(c2nc(-c3ccc(F)cc3)c(-c3ccnc(S(C)(=O)=O)n3)[nH]2)OC1` (stereo unspecified): 264 to 266 °C; `COc1ccc(-c2c(Cl)ncn2-c2ccc(S(C)(=O)=O)cc2)c(F)c1`: 176 to 198 °C.
Molecule `CC(=O)c1ccccc1NC(=O)CN1CCN(CCCC=C(c2ccc(F)cc2)c2ccc(F)cc2)C(C(N)=O)C1` (stereo unspecified) came in with a melting point of 111 °C.
For `CCOc1cccc(-c2ccc(C3CCN(S(=O)(=O)C(C)(C)C(=O)O)CC3)cc2C)n1`, the melting point is 178 to 179 °C.
In turn, `CCOC(=O)c1c(C(C)C)c[nH]c1C` displayed a melting point of 67 to 68.5 °C.
With `Cc1ccccc1-c1c(NC(=O)Nc2ccc(F)cc2F)cnc2sc(Cl)cc12`, the melting point lay in the range of 225 to 226 °C.
On to `O=C(c1ccc(Cl)cc1)c1ccc(CBr)cc1Cl`, for which the melting point lay in the range of 88 to 90 °C.
The molecule `N#Cc1csc([N+](=O)[O-])c1Br` returned a melting point of 176 to 178 °C.
In turn, `CC(N(CC(=O)O)C(=O)c1ccc(C(F)(F)F)cc1)C(O)(Cn1cncn1)c1ccc(C(F)(F)F)cc1` (stereo unspecified) yielded a melting point of 201 to 204 °C.
Turning to `CO[C@]1(c2cc(F)cc(OCc3ccc4c(ccc(=O)n4C)c3)c2)CCO[C@@H](C)C1`, the melting point lay within 91 to 93 °C.
As for `O=C(C=C(c1ccccc1)N1CNc2cccnc21)OCCC(OCCCc1ccc(Cl)cc1)C(=O)O` (stereo unspecified), the melting point was found to be 95 °C.

The melting point is the temperature of the solid-liquid transition.
